Data from article PMC10178848, “Modulating fast skeletal muscle contraction protects skeletal muscle in animal models of Duchenne muscular dystrophy” (The Journal of Clinical Investigation, 2023).

Tested on: mdx mouse EDL muscle
Experiment: Phosphoprotein array analysis (Cell Signaling Phospho Antibody Array)
Conditions: T vs C
Experimental: mdx mouse EDL muscle was prepared for ex vivo analysis as described (n = 5). Muscles were incubated for 1 hour with DMSO or EDG-5506 (5 μM) and then flash frozen in liquid nitrogen. Tissue preparation and analysis were performed as recommended by the manufacturer (Cell Signaling Phospho Antibody Array, Full Moon Biosystems).

## O=c1ccc(-c2cnc(OCC(F)(F)F)nc2)nn1Cc1cncc(F)c1 [EDG-5506]
  Fold Change between Samples T/C: ACC1 (Phospho-Ser80): 1.12
  Fold Change between Samples T/C: AMPKbeta1 (Phospho-Ser182): 0.97
  Fold Change between Samples T/C: B-RAF (Phospho-Ser446): 1.05
  Fold Change between Samples T/C: BAX (Phospho-Thr167): 0.95
  Fold Change between Samples T/C: BCL-XL (Phospho-Ser62): 1.23
  Fold Change between Samples T/C: BLNK (Phospho-Tyr96): 0.62
  Fold Change between Samples T/C: CBL (Phospho-Tyr700): 0.88
  Fold Change between Samples T/C: CDK1/CDC2 (Phospho-Tyr15): 0.83
  Fold Change between Samples T/C: CREB (Phospho-Ser133): 0.74
  Fold Change between Samples T/C: CaMK2-beta/gamma/delta (Phospho-Thr287): 0.92
  Fold Change between Samples T/C: CaMK2A (Phospho-Thr286): 0.86
  Fold Change between Samples T/C: Caspase 8 (Phospho-Ser347): 1.08
  Fold Change between Samples T/C: Caspase 9 (Phospho-Ser196): 0.94
  Fold Change between Samples T/C: Catenin beta (Phospho-Thr41/Ser45): 0.83
  Fold Change between Samples T/C: Chk2 (Phospho-Thr68): 0.51
  Fold Change between Samples T/C: Cyclin D1 (Phospho-Thr286): 1.18
  Fold Change between Samples T/C: Cyclin E1 (Phospho-Thr77): 1.02
  Fold Change between Samples T/C: DARPP-32 (Phospho-Thr34): 0.91
  Fold Change between Samples T/C: EEF2 (Phospho-Thr56): 1.12
  Fold Change between Samples T/C: FADD (Phospho-Ser194): 1.53
  Fold Change between Samples T/C: FAK (Phospho-Ser910): 1.09
  Fold Change between Samples T/C: FGFR1 (Phospho-Tyr654): 1.35
  Fold Change between Samples T/C: GRK2 (Phospho-Ser29): 1.26
  Fold Change between Samples T/C: GSK3 alpha/beta (Phospho-Tyr216/279): 0.97
  Fold Change between Samples T/C: Gab2 (Phospho-Tyr643): 1.59
  Fold Change between Samples T/C: HDAC1 (Phospho-Ser421): 1.25
  Fold Change between Samples T/C: HDAC2 (Phospho-Ser394): 0.90
  Fold Change between Samples T/C: HSP90B (Phospho-Ser226): 1.00
  Fold Change between Samples T/C: IKK-beta (Phospho-Tyr188): 1.01
  Fold Change between Samples T/C: IKK-beta (Phospho-Tyr199): 0.84
  Fold Change between Samples T/C: IKK-gamma (Phospho-Ser31): 0.98
  Fold Change between Samples T/C: IL-4R/CD124 (Phospho-Tyr497): 0.93
  Fold Change between Samples T/C: IL-10R-alpha (Phospho-Tyr496): 0.85
  Fold Change between Samples T/C: IkB-alpha (Phospho-Ser32/36): 1.11
  Fold Change between Samples T/C: Integrin beta-3 (Phospho-Tyr773): 0.93
  Fold Change between Samples T/C: JunB (Phospho-Ser259): 0.79
  Fold Change between Samples T/C: LYN (Phospho-Tyr507): 1.06
  Fold Change between Samples T/C: Lamin A/C (Phospho-Ser392): 0.80
  Fold Change between Samples T/C: MEK1 (Phospho-Ser217): 0.62
  Fold Change between Samples T/C: NFkB-p65 (Phospho-Ser311): 1.00
  Fold Change between Samples T/C: NFkB-p65 (Phospho-Ser529): 0.82
  Fold Change between Samples T/C: NFkB-p100/p52 (Phospho-Ser865): 0.88
  Fold Change between Samples T/C: P38 MAPK (Phospho-Thr180/Tyr182): 0.35
  Fold Change between Samples T/C: P70S6K (Phospho-Ser424): 1.00
  Fold Change between Samples T/C: P90RSK (Phospho-Thr359/Ser363): 0.95
  Fold Change between Samples T/C: PDK1 (Phospho-Ser241): 1.14
  Fold Change between Samples T/C: PLCG1 (Phospho-Tyr783): 2.25
  Fold Change between Samples T/C: PLK1 (Phospho-Thr210): 0.60
  Fold Change between Samples T/C: PP2A-alpha (Phospho-Tyr307): 0.93
  Fold Change between Samples T/C: PPAR-gamma (Phospho-Ser112): 1.26
  Fold Change between Samples T/C: Rb (Phospho-Ser807): 0.91
  Fold Change between Samples T/C: RelB (Phospho-Ser552): 0.76
  Fold Change between Samples T/C: SAPK/JNK (Phospho-Tyr185): 0.84
  Fold Change between Samples T/C: SHP-2 (Phospho-Tyr542): 0.91
  Fold Change between Samples T/C: STAT3 (Phospho-Tyr705): 0.92
  Fold Change between Samples T/C: STAT4 (Phospho-Tyr693): 1.04
  Fold Change between Samples T/C: STAT6 (Phospho-Thr645): 0.89
  Fold Change between Samples T/C: SYK (Phospho-Tyr348): 0.91
  Fold Change between Samples T/C: Smad1 (Phospho-Ser187): 1.60
  Fold Change between Samples T/C: Smad2 (Phospho-Ser467): 1.00
  Fold Change between Samples T/C: Smad2/3 (Phospho-Thr8): 1.25
  Fold Change between Samples T/C: Smad3 (Phospho-Ser213): 1.26
  Fold Change between Samples T/C: Src (Phospho-Tyr418): 0.77
